# Test results taken from PMC3188285 (Journal of Medicinal Chemistry, 2011).
# Assays:
# [1] = system: CREBBP; assay type: binding, human; details: from ΔTm^obs, compound 100 μM
# [2] = system: HeLa cells; test: Cytotoxicity assay; assay type: cell-based, human; details: 10, 1, 0.1 and 0.01 μM; 24 or 48 h; triplicate
SMILES,selectivity for CREBBP over the BET bromodomains [1],cytotoxicity in HeLa cells (MTT) [2]
"CCOc1cc(C(=O)O)cc(-c2c(C)noc2C)c1 [Compound 4b, 3-(3,5-Dimethylisoxazol-4-yl)-5-ethoxybenzoic acid]",modest,did not show any cytotoxicity
"Cc1noc(C)c1-c1ccc2c(c1)CN(C)C(=O)N2 [Compound 1, 6-(3,5-dimethylisoxazol-4-yl)-3-methyl-3,4-dihydroquinazolin-2(1H)-one]",,significant cytotoxicity
"CCOc1cc(-c2c(C)noc2C)cc(C(C)O)c1 (racemic) [Compound 4d, (RS)-1-(3-(3,5-Dimethylisoxazol-4-yl)-5-ethoxyphenyl)ethanol]",,did not show any cytotoxicity
